# Test results: patent publication US7943775B2, “Small molecules for imaging protein-protein interactions” (The United States of America as represented by the …, priority 2006, dated 2011)
# pEC50: −log10 of the molar value.
# Tests used:
# [1] = biological target: T1, Biotin-labeled amyloid-β (Homo sapiens, UniProt P05067); assay: ELISA assay, binding of biotin-labeled amyloid-β to plate-coated test compounds; conditions: compound coated at 1 μM
# Description: Step 1. Sample Solution Preparations. For each test compound, four samples and two standard solutions using Thioflavin-T as the standard were prepared in a coating buffer, each to a final concentration of 1 μM. The coating buffer was 50 mM Tris (Trizma Base from Sigma Aldrich, Inc., St. […] Step 2. Coating the Plate. The sample solutions were applied to individual wells of a 96-well polystyrene microtiter plate at 100 μL/well. The plates were sealed and allowed to incubate at 4° C. for at least 8 hours. Step 3. Washing the Plate. The sample solutions were removed and the plate was washed two times with 300 μL/well of washing solution, which consisted of a 1 to 25 dilution in water of DELFIA® Wash Concentrate (PerkinElmer Life Sciences, Inc., Boston, Mass., USA). Step 4. Blocking. Blocking was achieved by adding 150 μL/well of a blocking buffer which consisted of a 1 to 20 dilution in water of Milk Diluent/Blocking Solution Concentrate (from KPL, Inc., Gaithersburg, Md., USA). The plate was then incubated at room temperature for 2 hours. Step 5. Sampling. Biotin-labeled amyloid-β was dissolved in a binding buffer to form a 1 μM solution of the amyloid-β. The binding buffer was a mixture of a coating buffer with the blocking buffer of Step 4 in a 90:10 ratio by volume. […] The dilutions were performed in quadruplicate, thus resulting in four sets of wells for each test compound. Step 6. Mixing. The solution in each well was mixed by being drawn into and ejected from a pipette 15 times. The plate was then gently agitated for further mixing. The plate was then covered and incubated at room temperature overnight. Step 7. Washing. The solution in each well was discarded and the plate was washed three times with 170 μL/well of the washing solution described above. Step 8. Binding with avidin-HRP. NeutrAvidinHRP solution was added to each well at 0.01 μg/well. The wells were then covered and incubated at room temperature for 30 minutes. Step 9. Substrate addition. The solution in each well was discarded and the plate was washed 3 times with the above-referenced washing solution at 170 μL/well of washing solution. A chemiluminescent substrate solution which was a mixture of equal volumes of LumiGLO Substrate A and LumiGLO Substrate B from KPL, Inc., was then added at 100 μL/well. Step 10. Fluorescence measurement and calculations. Luminescence was read on a Wallac Victor 1420 Multilabel Reader (PerkinElmer Life Sciences, Inc., Boston, Mass., USA). […] Average luminescence concentrations in counts per second (CPS) for each of the four β-amyloid-binding portion candidates at each dilution of the biotin-labeled β-amyloid are shown in Table I below.
# [2] = biological target: T1, Biotin-labeled amyloid-β; assay: Dose response assay, plate-coated test compounds at 6 concentrations vs biotin-labeled amyloid β; assay type: binding; conditions: biotin-labeled amyloid at 1 μM; compounds coated at 6 concentrations
# Description: Step 1. Coating the plate. The four compounds 3a, 3b, 3c, and 3d were diluted to 6 different concentrations in the same coating buffer used in the ELISA. The resulting solutions were applied to individual wells of a 96-well polystyrene microtiter plate at 100 μL/well. The plate was then sealed and allowed to incubate at 4° C. for at least 8 hours.
# Step 2. Washing the plate. The sample solutions were then removed and the plate was washed twice with 300 μL/well of the same washing solution used in the ELISA.
# Step 3. Blocking. The blocking buffer used in the ELISA was added at a volume of 150 μL/well, and the plate was incubated at room temperature for 2 hours.
# Step 4. Sampling. The blocking buffer was removed and biotin-labeled amyloid P was added to each well at a concentration of 1 μM in the same binding buffer used in the ELISA. The solution in each well was then mixed by being drawn into and ejected from a pipette 15 times. The plate was then gently agitated for further mixing. After mixing, the plate was covered and incubated at room temperature overnight.
# Step 5. Washing. The solution in each well was discarded and the plate was washed three times with 170 μL/well of the washing solution described above.
# Step 6. Binding with avidin-HRP and substrate. NeutrAvidinHRP solution was added to each well at 0.01 μg/well. The wells were then covered and incubated at room temperature for 30 minutes. The solution in each well was discarded and the plate was washed 3 times with the above-referenced washing solution at 170 μL/well of washing solution. The chemiluminescent substrate solution of the ELISA was then added at 100 μL/well, and luminescence was read using the Wallac Victor 1420 Multilabel Counter.
# Step 7. Reading and calculations. Values for average luminescence vs. concentration were developed in the same manner as in the ELISA. From these values were determined EC50 values for each of the four test compounds as β-amyloid-binding portion candidates.
# [3] = biological target: T2, FKBP12 (Homo sapiens, UniProt P62942); assay: ELISA screening of candidates for the chaperone binding portion (FKBP12); conditions: for Average Luminescence Concentration (CPS): compound coated at 1 μM; for binding affinity to chaperone FKBP12, in words: comparison of the four isomers
# T2 construct: His (6xHis); made in house; host or cells: E. coli BL21-AI
# Description: The following four compounds, synthesized as described in, or in a manner analogous to the description in, Example 3, were tested for their suitability as candidates for the chaperone binding portion of the construct of this invention. The chaperone to which binding was evaluated was FKBP12 and, screening was performed by ELISA.
# Step 1. Sample Solutions. Four samples of each of the test compounds were prepared by dissolving the compounds in the coating buffer described in Example 2 to a final concentration of 1 μM.
# Step 2. Coating the Plate. The wells of a 96-well microtiter plate were coated with the sample solutions at 100 μL/well. The plates were then sealed and allowed to incubate at 4° C. for at least 8 hours.
# Step 3. Washing the Plate. The coating solution was removed from the wells and the plate was washed two times with the washing solution of Example 2 at 300 μL/well.
# Step 4. Blocking. The blocking buffer used in Example 2 was added at a volume of 150 μL/well, and the plate was incubated at room temperature for 2 hours.
# Step 5. Sampling. Biotin-labeled FKBP12 was dissolved in a binding buffer to form a 1 μM solution. The binding buffer was a mixture of a coating buffer with the blocking buffer of Step 4 in a 90:10 ratio by volume. The coating buffer consisted of 50 mM Tris (Trizma Base from Sigma-Aldrich), 150 mM NaCl, 1 mM CaCl2, 1mM MgCl2, 1 mM MnCl2, pH=7.4 in redistilled water. Once blocking had been completed in Step 4, the blocking buffer was removed from each well, and the biotin-labeled […] solution was placed in one of the wells for each of the four test compounds, together with additional blocking buffer for a total volume of 125 μL in the well. Dilutions were then prepared to achieve final concentrations per well of […]. The dilutions were performed in quadruplicate, thus resulting in four sets of wells for each test compound. The procedures used for cloning, expression, and purification of FKBP12 are provided at the end of this example.
# Step 6. Mixing. The solution in each well was mixed by being drawn into and ejected from a pipette 15 times. The plate was then gently agitated to achieve thorough mixing. After mixing, the plate was covered and incubated at room temperature overnight.
# Step 7. Washing. The solution in each well was discarded and the plate was washed three times with 170 μL/well of the washing solution of Example 2.
# Step 8. Binding with avidin-HRP. NeutrAvidinHRP solution was added to each well at 0.01 μg (100 μL)/well. The wells were then covered and incubated at room temperature for 30 minutes.
# Step 9. Substrate addition. The solution in each well was discarded and the plate was washed 3 times with the above-referenced washing solution at 170 μL/well of washing solution. A chemiluminescent substrate solution was then added at 100 μL/well.
# Step 10. Fluorescence measurement and calculations.
# [4] = β-Amyloid Dilution 10 (μL/well)
# [5] = β-Amyloid Dilution 20 (μL/well)
# [6] = β-Amyloid Dilution 30 (μL/well)
# [7] = β-Amyloid Dilution 40 (μL/well)
# [8] = Concentration 1 (μM/well) biotin-labeled FKBP12
# [9] = Concentration 5 (μM/well) biotin-labeled FKBP12
# [10] = Concentration 10 (μM/well) biotin-labeled FKBP12
# [11] = Concentration 20 (μM/well) biotin-labeled FKBP12
# [12] = Concentration 30 (μM/well) biotin-labeled FKBP12
# [13] = Concentration 40 (μM/well) biotin-labeled FKBP12
# T1 sequence (P05067 672-711 limits assumed): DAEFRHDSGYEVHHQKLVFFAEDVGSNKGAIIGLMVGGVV
# T2 sequence (P62942 whole entry): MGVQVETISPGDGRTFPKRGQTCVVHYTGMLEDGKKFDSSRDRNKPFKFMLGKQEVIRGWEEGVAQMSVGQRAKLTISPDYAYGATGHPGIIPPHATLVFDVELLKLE
Structure (SMILES),Average Luminescence Concentration (CPS) ([1]; β-Amyloid Dilution 1 (μL/well)),Average Luminescence Concentration (CPS) ([1]; β-Amyloid Dilution 5 (μL/well)),"Average Luminescence Concentration (CPS) [1, 4] [CPS]","Average Luminescence Concentration (CPS) [1, 5] [CPS]","Average Luminescence Concentration (CPS) [1, 6] [CPS]","Average Luminescence Concentration (CPS) [1, 7] [CPS]",pEC50 [2],"Average Luminescence Concentration (CPS) [3, 8] [CPS]","Average Luminescence Concentration (CPS) [3, 9] [CPS]","Average Luminescence Concentration (CPS) [3, 10] [CPS]","Average Luminescence Concentration (CPS) [3, 11] [CPS]","Average Luminescence Concentration (CPS) [3, 12] [CPS]","Average Luminescence Concentration (CPS) [3, 13] [CPS]","binding affinity to chaperone FKBP12, in words [3]"
NCCCCCNC(=O)c1ccccc1Nc1cccc(C(F)(F)F)c1 [3d],105,220,678,1461,2662,2579,4.45,,,,,,,
"CCC(C)(C)C(=O)C(=O)N1CCCC[C@H]1C(=O)O[C@H](CCc1ccc(OC)c(OC)c1)c1ccc(OCC(=O)O)cc1 [9-RS, (1R)-1-[4-(carboxymethoxy)phenyl]-3-(3,4-dimethoxy-phenyl)-1-propanyl (2S)-1-(3,3-dimethyl-1,2-dioxopentyl)-2-piperidinecarboxylate]",,,,,,,,1399,1688,1685,2006,4244,5509,
CCC(C)(C)C(=O)C(=O)N1CCCC[C@H]1C(=O)O[C@@H](CCc1ccc(OC)c(OC)c1)c1ccc(OCC(=O)O)cc1 [9-SR],,,,,,,,762,1050,1218,1410,1478,1392,
NCCCNC(=O)c1ccccc1Nc1cccc(C(F)(F)F)c1 [3b],878,1325,1694,2184,4629,4788,4.50,,,,,,,
CCC(C)(C)C(=O)C(=O)N1CCCC[C@H]1C(=O)O[C@@H](CCc1ccc(OC)c(OC)c1)c1ccc(OCC(=O)O)cc1 [9-RR],,,,,,,,660,1158,769,371,1297,1138,low or moderate binding affinity
"NCCNC(=O)c1ccccc1Nc1cccc(C(F)(F)F)c1 [3a, N-(2-amino-ethyl)-2-(3-trifluoromethyl-phenylamino)-benzamide]",323,816,1453,2072,3072,2986,4.30,,,,,,,
CCC(C)(C)C(=O)C(=O)N1CCCC[C@H]1C(=O)O[C@@H](CCc1ccc(OC)c(OC)c1)c1ccc(OCC(=O)O)cc1 [9-SS],,,,,,,,297,876,931,579,1366,1231,low or moderate binding affinity
"Cc1ccc2c(c1)sc(-c1ccc(N(C)C)cc1)[n+]2C.[Cl-] [Thioflavin-T, reference compound]",940,570,731,86,2311,5140,,,,,,,,
